Reference: PMC6437697 (Journal of Medicinal Chemistry, 2019)

Legend:
Test in all cases: KINOMEscan
Assay type in all cases: binding
PIK3CD = molecular target: T1, PIK3CD (Homo sapiens, UniProt O00329); conditions: read-out: % control activity remaining
T1 construct: purchased Eurofins DiscoverX KINOMEscan
T1 sequence (O00329 1-1044): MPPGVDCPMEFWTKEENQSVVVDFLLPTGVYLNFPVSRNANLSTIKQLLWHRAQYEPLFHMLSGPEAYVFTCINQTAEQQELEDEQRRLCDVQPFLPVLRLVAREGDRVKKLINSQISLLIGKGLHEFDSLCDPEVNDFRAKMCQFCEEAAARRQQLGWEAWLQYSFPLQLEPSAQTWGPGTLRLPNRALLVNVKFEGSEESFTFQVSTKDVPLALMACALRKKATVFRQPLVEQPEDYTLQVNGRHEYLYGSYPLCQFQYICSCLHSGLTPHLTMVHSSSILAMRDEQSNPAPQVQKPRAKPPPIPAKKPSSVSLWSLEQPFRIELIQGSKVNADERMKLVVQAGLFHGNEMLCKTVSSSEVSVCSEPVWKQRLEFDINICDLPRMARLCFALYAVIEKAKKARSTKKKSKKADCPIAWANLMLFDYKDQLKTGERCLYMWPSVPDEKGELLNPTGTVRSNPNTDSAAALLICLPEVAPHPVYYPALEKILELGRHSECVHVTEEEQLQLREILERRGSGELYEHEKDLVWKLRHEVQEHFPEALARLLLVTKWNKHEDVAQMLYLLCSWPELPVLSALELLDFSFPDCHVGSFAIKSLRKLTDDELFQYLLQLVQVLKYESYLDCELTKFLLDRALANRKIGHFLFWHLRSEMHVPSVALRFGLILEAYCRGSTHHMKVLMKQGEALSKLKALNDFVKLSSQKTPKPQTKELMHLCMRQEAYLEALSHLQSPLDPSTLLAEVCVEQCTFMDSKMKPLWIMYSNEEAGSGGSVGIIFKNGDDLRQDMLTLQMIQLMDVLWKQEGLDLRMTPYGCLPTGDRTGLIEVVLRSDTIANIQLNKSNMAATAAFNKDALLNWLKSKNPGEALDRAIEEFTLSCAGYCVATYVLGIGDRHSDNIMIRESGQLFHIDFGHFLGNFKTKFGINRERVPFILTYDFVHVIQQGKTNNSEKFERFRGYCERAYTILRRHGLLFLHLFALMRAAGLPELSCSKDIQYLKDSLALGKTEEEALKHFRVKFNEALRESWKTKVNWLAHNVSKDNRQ

PDGFRB = molecular target: T2, PDGFRB (Homo sapiens, UniProt P09619); conditions: for remaining binding at 1 µM: read-out: % control activity remaining
T2 construct: purchased Eurofins DiscoverX KINOMEscan
T2 sequence (P09619 33-1106): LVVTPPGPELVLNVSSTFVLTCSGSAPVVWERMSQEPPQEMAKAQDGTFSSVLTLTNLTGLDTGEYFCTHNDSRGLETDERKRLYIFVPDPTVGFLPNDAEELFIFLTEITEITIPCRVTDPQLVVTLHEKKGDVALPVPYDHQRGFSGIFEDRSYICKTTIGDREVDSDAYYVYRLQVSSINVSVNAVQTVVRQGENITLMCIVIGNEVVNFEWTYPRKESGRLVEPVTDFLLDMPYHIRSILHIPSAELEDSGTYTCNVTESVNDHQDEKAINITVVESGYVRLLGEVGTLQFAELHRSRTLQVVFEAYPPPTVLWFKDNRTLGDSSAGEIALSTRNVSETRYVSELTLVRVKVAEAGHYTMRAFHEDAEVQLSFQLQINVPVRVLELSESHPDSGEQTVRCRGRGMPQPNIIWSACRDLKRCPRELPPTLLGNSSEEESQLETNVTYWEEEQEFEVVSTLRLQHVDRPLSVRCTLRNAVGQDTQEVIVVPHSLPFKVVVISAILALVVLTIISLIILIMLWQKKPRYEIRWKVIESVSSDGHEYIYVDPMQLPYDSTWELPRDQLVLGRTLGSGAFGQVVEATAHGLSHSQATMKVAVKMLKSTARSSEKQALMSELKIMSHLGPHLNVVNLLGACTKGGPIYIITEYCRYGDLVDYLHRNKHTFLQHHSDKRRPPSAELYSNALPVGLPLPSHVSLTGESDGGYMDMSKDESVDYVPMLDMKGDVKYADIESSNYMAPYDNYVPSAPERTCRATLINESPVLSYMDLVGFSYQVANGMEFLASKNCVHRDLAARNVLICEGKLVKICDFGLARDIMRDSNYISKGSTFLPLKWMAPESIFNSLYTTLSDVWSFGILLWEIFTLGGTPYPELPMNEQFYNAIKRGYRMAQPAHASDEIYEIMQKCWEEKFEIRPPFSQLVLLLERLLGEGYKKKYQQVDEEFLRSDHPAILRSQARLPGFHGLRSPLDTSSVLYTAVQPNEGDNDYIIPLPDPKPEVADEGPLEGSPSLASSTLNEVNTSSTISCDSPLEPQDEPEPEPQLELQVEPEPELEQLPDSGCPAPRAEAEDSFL

CSF1R-autoinhibited = molecular target: T3, CSF1R-autoinhibited (Homo sapiens, UniProt P07333); conditions: read-out: % control activity remaining
T3 construct: purchased Eurofins DiscoverX KINOMEscan
T3 sequence (P07333 539-972 limits assumed): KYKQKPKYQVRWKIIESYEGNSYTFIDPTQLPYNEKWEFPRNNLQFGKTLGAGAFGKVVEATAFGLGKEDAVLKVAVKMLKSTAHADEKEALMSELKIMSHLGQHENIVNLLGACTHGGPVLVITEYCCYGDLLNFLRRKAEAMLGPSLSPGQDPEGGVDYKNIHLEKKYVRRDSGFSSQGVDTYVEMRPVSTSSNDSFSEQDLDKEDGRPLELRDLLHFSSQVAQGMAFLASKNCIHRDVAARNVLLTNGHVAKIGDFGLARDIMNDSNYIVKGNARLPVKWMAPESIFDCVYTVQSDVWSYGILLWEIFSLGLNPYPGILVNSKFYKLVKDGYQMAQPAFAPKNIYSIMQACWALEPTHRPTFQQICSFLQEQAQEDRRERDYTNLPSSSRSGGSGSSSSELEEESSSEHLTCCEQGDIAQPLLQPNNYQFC

PIK3CA(E542K) = molecular target: T4, PIK3CA(E542K (Homo sapiens, UniProt P42336, E542K)); conditions: read-out: % control activity remaining
T4 construct: purchased Eurofins DiscoverX KINOMEscan

RIPK2 = molecular target: T5, RIPK2 (Homo sapiens, UniProt O43353); conditions: read-out: % control activity remaining
T5 construct: purchased Eurofins DiscoverX KINOMEscan
T5 sequence (O43353 whole entry): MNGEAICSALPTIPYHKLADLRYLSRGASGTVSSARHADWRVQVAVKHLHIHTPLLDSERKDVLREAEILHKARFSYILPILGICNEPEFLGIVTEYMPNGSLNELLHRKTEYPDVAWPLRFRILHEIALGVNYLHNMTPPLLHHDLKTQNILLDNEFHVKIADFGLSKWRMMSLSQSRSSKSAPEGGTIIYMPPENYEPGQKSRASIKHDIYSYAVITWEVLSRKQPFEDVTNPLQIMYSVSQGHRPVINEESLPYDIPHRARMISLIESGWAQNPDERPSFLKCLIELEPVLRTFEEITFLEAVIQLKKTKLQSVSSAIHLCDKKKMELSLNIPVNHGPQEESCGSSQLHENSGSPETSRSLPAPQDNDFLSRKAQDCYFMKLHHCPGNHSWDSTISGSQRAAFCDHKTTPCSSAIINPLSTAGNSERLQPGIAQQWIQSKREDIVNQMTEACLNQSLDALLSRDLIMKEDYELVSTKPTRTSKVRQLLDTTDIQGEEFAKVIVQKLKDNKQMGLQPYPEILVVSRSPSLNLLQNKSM

AKT2 = molecular target: T6, AKT2 (Homo sapiens, UniProt P31751); conditions: read-out: % control activity remaining
T6 construct: purchased Eurofins DiscoverX KINOMEscan
T6 sequence (P31751 whole entry): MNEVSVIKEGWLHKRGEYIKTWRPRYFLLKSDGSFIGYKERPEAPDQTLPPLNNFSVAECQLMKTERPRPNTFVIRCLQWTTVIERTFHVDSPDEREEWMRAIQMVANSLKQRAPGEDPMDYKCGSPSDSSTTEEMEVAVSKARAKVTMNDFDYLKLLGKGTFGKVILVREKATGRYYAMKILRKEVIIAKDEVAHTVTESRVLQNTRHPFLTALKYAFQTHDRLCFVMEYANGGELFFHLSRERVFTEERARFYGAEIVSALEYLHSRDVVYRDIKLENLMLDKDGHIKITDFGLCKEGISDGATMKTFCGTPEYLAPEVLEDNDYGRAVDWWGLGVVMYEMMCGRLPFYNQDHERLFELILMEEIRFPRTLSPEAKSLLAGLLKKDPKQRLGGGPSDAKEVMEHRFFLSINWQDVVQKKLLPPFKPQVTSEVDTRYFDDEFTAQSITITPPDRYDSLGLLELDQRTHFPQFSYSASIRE

[1] = molecular target: T7, RPS6KA4(Kin.Dom.2-C-terminal) (Homo sapiens, UniProt O75676); conditions: read-out: % control activity remaining
T7 construct: RPS6KA4(Kin.Dom.2-C-terminal); purchased Eurofins DiscoverX KINOMEscan
T7 sequence (O75676 411-674 limits assumed): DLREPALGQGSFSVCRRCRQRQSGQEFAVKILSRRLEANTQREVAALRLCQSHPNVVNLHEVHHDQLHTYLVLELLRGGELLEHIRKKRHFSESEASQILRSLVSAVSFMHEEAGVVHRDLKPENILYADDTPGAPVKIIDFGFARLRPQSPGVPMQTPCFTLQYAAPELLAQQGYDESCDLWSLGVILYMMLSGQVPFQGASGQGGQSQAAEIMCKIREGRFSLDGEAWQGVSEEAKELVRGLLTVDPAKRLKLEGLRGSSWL

[2] = molecular target: T8, ABL1(Y253F)-phosphorylated (Homo sapiens, UniProt P00519, Y253F); conditions: read-out: % control activity remaining
T8 construct: purchased Eurofins DiscoverX KINOMEscan

CDK4-cyclinD3 = molecular target: T9, CDK4-cyclinD3 (Homo sapiens, UniProt P11802); conditions: read-out: % control activity remaining
T9 construct: purchased Eurofins DiscoverX KINOMEscan
T9 sequence (P11802 whole entry): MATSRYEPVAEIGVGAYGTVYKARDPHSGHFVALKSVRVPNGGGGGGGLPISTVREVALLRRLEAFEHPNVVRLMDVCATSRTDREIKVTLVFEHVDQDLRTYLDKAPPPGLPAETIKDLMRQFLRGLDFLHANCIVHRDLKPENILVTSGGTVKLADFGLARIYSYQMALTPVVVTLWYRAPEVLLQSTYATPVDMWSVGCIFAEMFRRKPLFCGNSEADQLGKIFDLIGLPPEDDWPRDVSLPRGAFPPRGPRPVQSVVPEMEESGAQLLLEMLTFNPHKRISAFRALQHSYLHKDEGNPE
T9 sequence (P30281 whole entry partner): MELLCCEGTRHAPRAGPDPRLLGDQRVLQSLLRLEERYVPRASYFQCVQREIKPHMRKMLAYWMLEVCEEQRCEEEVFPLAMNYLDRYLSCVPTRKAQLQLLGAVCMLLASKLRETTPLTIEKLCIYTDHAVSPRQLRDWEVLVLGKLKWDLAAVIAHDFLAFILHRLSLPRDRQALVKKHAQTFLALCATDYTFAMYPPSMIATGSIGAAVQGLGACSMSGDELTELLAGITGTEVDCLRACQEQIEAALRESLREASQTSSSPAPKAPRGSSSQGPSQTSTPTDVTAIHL

TNNI3K = molecular target: T10, TNNI3K (Homo sapiens, UniProt Q59H18); conditions: read-out: % control activity remaining
T10 construct: purchased Eurofins DiscoverX KINOMEscan
T10 sequence (Q59H18 1-835): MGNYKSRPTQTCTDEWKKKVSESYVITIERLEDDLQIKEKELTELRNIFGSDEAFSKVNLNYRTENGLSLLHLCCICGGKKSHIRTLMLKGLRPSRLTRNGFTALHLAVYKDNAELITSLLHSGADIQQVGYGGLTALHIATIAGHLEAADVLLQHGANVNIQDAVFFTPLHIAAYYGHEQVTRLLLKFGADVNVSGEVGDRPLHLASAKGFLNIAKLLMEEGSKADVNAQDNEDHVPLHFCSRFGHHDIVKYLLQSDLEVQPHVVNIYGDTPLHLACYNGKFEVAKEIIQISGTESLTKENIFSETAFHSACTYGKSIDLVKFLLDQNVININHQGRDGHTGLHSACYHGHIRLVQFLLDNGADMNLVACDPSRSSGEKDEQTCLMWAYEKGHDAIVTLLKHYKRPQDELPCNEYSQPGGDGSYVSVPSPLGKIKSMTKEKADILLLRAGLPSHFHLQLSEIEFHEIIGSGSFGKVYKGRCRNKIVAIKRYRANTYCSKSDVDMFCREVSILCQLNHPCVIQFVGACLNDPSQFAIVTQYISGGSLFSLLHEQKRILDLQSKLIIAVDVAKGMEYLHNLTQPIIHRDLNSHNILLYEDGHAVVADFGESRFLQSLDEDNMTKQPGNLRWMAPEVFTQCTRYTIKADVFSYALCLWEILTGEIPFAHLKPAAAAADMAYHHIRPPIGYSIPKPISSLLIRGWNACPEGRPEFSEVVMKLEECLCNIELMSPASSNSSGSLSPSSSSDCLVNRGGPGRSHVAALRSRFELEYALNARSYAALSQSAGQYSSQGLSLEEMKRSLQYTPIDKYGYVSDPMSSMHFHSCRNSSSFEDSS

BUB1 = molecular target: T11, BUB1 (Homo sapiens, UniProt O43683); conditions: read-out: % control activity remaining
T11 construct: purchased Eurofins DiscoverX KINOMEscan
T11 sequence (O43683 whole entry): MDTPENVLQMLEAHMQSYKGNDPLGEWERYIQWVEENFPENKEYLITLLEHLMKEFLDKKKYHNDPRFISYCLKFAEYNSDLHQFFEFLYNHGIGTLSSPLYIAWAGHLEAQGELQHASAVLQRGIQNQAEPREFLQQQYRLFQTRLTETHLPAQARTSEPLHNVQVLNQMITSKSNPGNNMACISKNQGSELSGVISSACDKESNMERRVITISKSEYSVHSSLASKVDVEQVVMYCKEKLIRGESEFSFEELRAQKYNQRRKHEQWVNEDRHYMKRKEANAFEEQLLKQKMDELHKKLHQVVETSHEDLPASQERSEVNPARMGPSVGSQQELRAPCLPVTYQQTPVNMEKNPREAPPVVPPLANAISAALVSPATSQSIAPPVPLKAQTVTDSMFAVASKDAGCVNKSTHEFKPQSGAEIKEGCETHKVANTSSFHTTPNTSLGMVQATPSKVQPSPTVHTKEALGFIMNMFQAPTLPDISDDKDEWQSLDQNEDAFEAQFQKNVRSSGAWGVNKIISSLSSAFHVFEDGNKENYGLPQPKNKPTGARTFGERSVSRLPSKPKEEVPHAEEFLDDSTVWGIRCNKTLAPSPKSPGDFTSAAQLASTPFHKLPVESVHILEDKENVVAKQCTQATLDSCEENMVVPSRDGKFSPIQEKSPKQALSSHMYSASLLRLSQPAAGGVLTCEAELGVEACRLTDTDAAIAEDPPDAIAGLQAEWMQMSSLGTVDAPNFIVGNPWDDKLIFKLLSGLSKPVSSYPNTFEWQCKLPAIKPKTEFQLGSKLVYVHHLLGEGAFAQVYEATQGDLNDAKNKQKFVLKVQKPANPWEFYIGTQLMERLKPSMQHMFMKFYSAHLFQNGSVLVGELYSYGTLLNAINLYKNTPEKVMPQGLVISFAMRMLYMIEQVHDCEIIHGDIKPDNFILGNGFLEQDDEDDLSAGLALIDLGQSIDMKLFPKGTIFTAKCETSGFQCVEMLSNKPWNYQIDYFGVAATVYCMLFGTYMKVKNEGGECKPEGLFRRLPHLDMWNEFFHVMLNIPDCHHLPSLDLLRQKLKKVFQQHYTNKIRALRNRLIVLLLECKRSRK

CLK1 = molecular target: T12, CLK1 (Homo sapiens, UniProt P49759); conditions: read-out: % control activity remaining
T12 construct: purchased Eurofins DiscoverX KINOMEscan
T12 sequence (P49759 whole entry): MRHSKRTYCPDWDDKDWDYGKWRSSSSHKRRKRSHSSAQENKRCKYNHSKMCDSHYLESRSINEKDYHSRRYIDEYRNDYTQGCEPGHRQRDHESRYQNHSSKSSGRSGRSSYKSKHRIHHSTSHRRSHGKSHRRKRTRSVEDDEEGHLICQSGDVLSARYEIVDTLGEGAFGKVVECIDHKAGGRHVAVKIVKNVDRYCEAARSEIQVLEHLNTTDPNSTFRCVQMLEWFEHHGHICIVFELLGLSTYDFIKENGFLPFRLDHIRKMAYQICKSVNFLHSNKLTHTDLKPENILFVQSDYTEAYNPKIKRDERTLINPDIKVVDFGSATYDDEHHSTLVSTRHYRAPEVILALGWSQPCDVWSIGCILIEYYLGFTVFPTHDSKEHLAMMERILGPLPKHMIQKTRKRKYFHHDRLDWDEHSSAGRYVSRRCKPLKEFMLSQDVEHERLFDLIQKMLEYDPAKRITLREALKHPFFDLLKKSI

| Compound | remaining binding at 1 µM (PIK3CD) | remaining binding at 1 µM (PDGFRB) | remaining binding at 1 µM (CSF1R-autoinhibited) | remaining binding at 1 µM (PIK3CA(E542K)) | remaining binding at 1 µM (RIPK2) | remaining binding at 1 µM (AKT2) | remaining binding at 1 µM [1] | remaining binding at 1 µM [2] | remaining binding at 1 µM (CDK4-cyclinD3) | remaining binding at 1 µM (TNNI3K) | remaining binding at 1 µM (BUB1) | remaining binding at 1 µM (CLK1) | inhibition at 1 µM (PDGFRB; read-out: Probe binding inhibited) |
| --- | --- | --- | --- | --- | --- | --- | --- | --- | --- | --- | --- | --- | --- |
| Clc1cc(NCC2CC2)c2ncc(-c3ccc4[nH]ncc4c3)n2n1 [compound 2, 6-Chloro-N-(cyclopropylmethyl)-3-(1H-indazol-5-yl)imidazo[1,2-b]pyridazin-8-amine] | 92% | 1.3% | 98% | 72% | 88% | 99% | 87% | 71% | 78% | 97% | 83% | 4% |  |
| O=C(CN1CCOCC1)N[C@H]1CC[C@H](Nc2cc(Cl)nn3c(-c4ccc5[nH]ncc5c4)cnc23)CC1 [compound 26] | 90% | 0.05% | 91% | 93% | 61% | 99% | 81% | 55% | 100% | 100% | 58% | 1.2% | > 90% |
| CN1CCC(CNc2cc(Cl)nn3c(-c4cc5nc(Nc6ccccc6)[nH]c5cc4F)cnc23)CC1 [compound 31, 6-Chloro-3-(6-fluoro-2-(phenylamino)-1H-benzo[d]imidazol-5-yl)-N-((1-methylpiperidin-4-yl)methyl)imidazo[1,2-b]pyridazin-8-amine] | 75% | 56% | 100% | 65% | 100% | 80% | 86% | 75% | 97% | 100% | 59% | 16% |  |
